Results: patent US4101656A, “7β-Acylamino-3-(alkanesulfonamidoalkyl substituted tetrazolylthiomethyl) cephalosporins, antibacterial compositions containing them and methods of treating bacterial infections with them” (Smithkline Corporation, priority 1976, dated 1978)
Converted amounts (≈) assume the structure as drawn. Like-named read-outs stand apart in the source and are kept apart here.

Columns and labels:
E. coli HH 33779 = assay: in vitro MIC testing, E. coli HH 33779; assay type: cell-based
Protocol: (§1) The compounds of Formula I have exceptional antibacterial activity against both Gram-positive and Gram-negative organisms. Minimum inhibitory concentrations (MIC's) range from 0.2 to >200 μg/ml in in vitro testing. Test results for the compound 7β-D-mandelamido-3-[1-(2-methanesulfonamidoethyl)tetrazol-5-ylthiomethyl]-3-cephem-4-carboxylic acid sodium salt hydrate (Compound A) are given below: […]

S. aureus HH 127 = assay: in vitro MIC testing, S. aureus HH 127; assay type: cell-based
Protocol: as §1

Entero aerog. ATCC 13048 = assay: in vitro MIC testing, Entero aerog. ATCC 13048; assay type: cell-based; details: two values given
Protocol: as §1

Proteus mirabilis 444 = assay: in vitro MIC testing, Proteus mirabilis 444; assay type: cell-based
Protocol: as §1

E. coli SK 12140 = assay: in vitro MIC testing, E. coli SK 12140; assay type: cell-based; details: Escherichia coli, SK12140
Protocol: as §1

S. aureus SK 23390 = assay: in vitro MIC testing, S. aureus SK 23390; assay type: cell-based
Protocol: as §1

[1] = test system: Serratia marc. ATCC 13880; assay: in vitro MIC testing, Serratia marc. ATCC 13880; assay type: cell-based; details: ATCC13880, two values given
Protocol: as §1

Pseudo. aerug. HH 63 = assay: in vitro MIC testing, Pseudo. aerug. HH 63; assay type: cell-based
Protocol: as §1

Kleb. pneumo. SK 4200 = assay: in vitro MIC testing, Kleb. pneumo. SK 4200; assay type: cell-based
Protocol: as §1

Strep. faecalis HH 34358 = assay: in vitro MIC testing, Strep. faecalis HH 34358; assay type: cell-based
Protocol: as §1

E. coli 12140 = assay: in vivo mouse protection test, E. coli 12140
Protocol: (§2) 4200 upon subcutaneous injection; cefazolin gave results of 4 mg/kg against E. coli 12140 and 11.3 mg/kg against Kleb. pneumo. 4200 upon subcutaneous administration.

Proteus morgani 179 = assay: in vitro MIC testing, Proteus morgani 179; assay type: cell-based; details: two values given
Protocol: as §1

Shigella HH 117 = assay: in vitro MIC testing, Shigella HH 117; assay type: cell-based; details: HH117
Protocol: as §1

Salmonella ATCC 12176 = assay: in vitro MIC testing, Salmonella ATCC 12176; assay type: cell-based; details: ATCC12176, two values given
Protocol: as §1

Entero. cloacae HH 31254 = assay: in vitro MIC testing, Entero. cloacae HH 31254; assay type: cell-based; details: Enterobacter cloacae, HH31254
Protocol: as §1

Kleb. pneumo. 4200 = assay: in vivo mouse protection test, Kleb. pneumo. 4200; details: sc
Protocol: as §2

Kleb. pneumo. SK 1200 = assay: in vitro MIC testing, Kleb. pneumo. SK 1200; assay type: cell-based
Protocol: as §1

[2] = two values given, sodium salt hydrate

Work on `Cc1nnc(SCC2=C(C(=O)O)N3C(=O)[C@@H](NC(=O)Cn4cnnn4)[C@H]3SC2)s1` [Cefazolin, reference compound] yielded an MIC (E. coli HH 33779; Escherichia coli, HH33779, two values given, read-out: MIC) of 1.6 µg/mL (≈ 3.52 µM), an MIC (S. aureus HH 127; Staphylococcus aureus, HH127, two values given, read-out: MIC) of 0.4 µg/mL (≈ 0.88 µM) and an MIC (Entero aerog. ATCC 13048; read-out: MIC) of 1.6 µg/mL (≈ 3.52 µM). For the same molecule, the MIC (Proteus mirabilis 444; read-out: MIC) was 3.1 µg/mL (≈ 6.82 µM), the MIC (E. coli SK 12140; E. coli SK 12140, two values given, read-out: MIC) was 0.8 µg/mL (≈ 1.76 µM) and the MIC (S. aureus SK 23390; Staphylococcus aureus, SK23390, two values given, read-out: MIC) was 0.2 µg/mL (≈ 0.44 µM). It also gave an MIC [1] greater than 200 µg/mL, an MIC (Pseudo. aerug. HH 63; Pseudo. aerug. HH 63, two values given, read-out: MIC) greater than 200 µg/mL and an MIC (Kleb. pneumo. SK 4200; Kleb. pneumo. SK 4200, two values given, read-out: MIC) of 1.6 µg/mL (≈ 3.52 µM). For the same molecule, the MIC (Strep. faecalis HH 34358; Enterococcus faecalis, HH34358, two values given, read-out: MIC) was 6.3 µg/mL (≈ 13.9 µM), the ED50 (E. coli 12140; Escherichia coli, sc, mouse protection, E. coli 12140, subcutaneous, read-out: ED50) was 4 mg/kg and the MIC (Proteus morgani 179; read-out: MIC) was 200 µg/mL (≈ 440 µM). For the same molecule, the MIC (Shigella HH 117) was 0.4 µg/mL (≈ 0.88 µM), the MIC (Salmonella ATCC 12176) was 0.8 µg/mL (≈ 1.76 µM) and the MIC (Entero. cloacae HH 31254; Entero. cloacae HH 31254, two values given, read-out: MIC) was 0.8 µg/mL (≈ 1.76 µM). The ED50 (Kleb. pneumo. 4200; mouse protection, Kleb. pneumo. 4200, subcutaneous, read-out: ED50) was 11.3 mg/kg and the MIC (Kleb. pneumo. SK 1200; Kleb. pneumo. SK 1200, two values given, read-out: MIC) was 0.8 µg/mL (≈ 1.76 µM).

In the case of `CS(=O)(=O)NCCn1nnnc1SCC1=C(C(=O)[O-])N2C(=O)[C@@H](NC(=O)[C@H](O)c3ccccc3)[C@H]2SC1.O.[Na+]` [Compound A, 7β-D-mandelamido-3-[1-(2-methanesulfonamidoethyl)tetrazol-5-ylthiomethyl]-3-cephem-4-carboxylic acid sodium salt hydrate], the MIC (E. coli HH 33779; Escherichia coli, HH33779, two values given) is reported as 1.6 µg/mL, the MIC (E. coli HH 33779; [2]) is reported as 0.8 µg/mL and the MIC (S. aureus HH 127; Staphylococcus aureus, HH127, two values given) is reported as 3.1 µg/mL. The MIC (S. aureus HH 127; [2]) was 1.6 µg/mL, the MIC (Entero aerog. ATCC 13048) was 1.6 µg/mL and the MIC (Entero aerog. ATCC 13048; sodium salt hydrate) was 0.8 µg/mL. For the same molecule, the MIC (Proteus mirabilis 444) was 0.8 µg/mL, the MIC (E. coli SK 12140) was 0.8 µg/mL and the MIC (S. aureus SK 23390; Staphylococcus aureus, SK23390, two values given) was 0.8 µg/mL. The MIC (S. aureus SK 23390; [2]) was 0.4 µg/mL, the MIC (Pseudo. aerug. HH 63) was greater than 200 µg/mL and the MIC (Kleb. pneumo. SK 4200) was 0.4 µg/mL. It also gave an MIC (Strep. faecalis HH 34358; Enterococcus faecalis, HH34358, two values given) of 25 µg/mL, an MIC (Strep. faecalis HH 34358; [2]) of 12.5 µg/mL and an ED50 (E. coli 12140; Escherichia coli, 12140, sc) of 0.39 mg/kg. For the same molecule, the MIC (Proteus morgani 179) was 1.6 µg/mL, the MIC (Proteus morgani 179; sodium salt hydrate) was 0.8 µg/mL and the MIC (Shigella HH 117) was 0.2 µg/mL. For the same molecule, the MIC (Salmonella ATCC 12176) was 0.4 µg/mL, the MIC (Entero. cloacae HH 31254) was 0.8 µg/mL and the ED50 (Kleb. pneumo. 4200; Mus musculus) was 2.44 mg/kg. The MIC (Kleb. pneumo. SK 1200) was 0.4 µg/mL.
